System: THP-1 CD14
Test: THP-1 CD14 Screening Assay
Format: cell-based
Details: THP-1 cells treated with PMA and compound (5-point 10-fold dilution), human CD14 ELISA on media
Description: THP-1 CD14 Screening Assay Protocol:
5×10^4 THP-1 cells were plated per well in a tissue culture-treated 96-well plate. At the time of plating, cells were treated with a final concentration of […] PMA and 0.04% DMSO vehicle, concominant with compounds in a 5-point 10-fold dilution per compound. Cells were treated with PMA and DMSO as a control for differentiation without compound treatment, and with only DMSO as a control for no differentiation and no compound treatment. 500 nM IACS-71432 was added as a control compound across all assay plates.
After incubation at 37° C./5% CO2 for 72 hr, media was collected from the cells and the screening assay was performed using the commercially-available human CD14 SimpleStep ELISA kit from Abcam, according to the following protocol: • 1) ELISA kits were taken out to equilibrate to rt. • 2) Following the protocol listed in the kit, standards were prepared as 1:1 dilutions from 2 ng/ml. • 3) Following the protocol listed in the kit, antibody cocktail was prepared (the volume is contingent on the number of wells required). • 4) 50 μl of standards were added to the appropriate wells, thoroughly mizing the standards before adding to each well. • 5) 25 μl of Sample Diluent (from kit) was added to all sample wells. • 6) Cell plates were centrifuged for 5 min at 300 rcf, with slow acceleration and slow deceleration. • 7) 25 μl of media from cell plates was transferred to assay plates containing standards. • 8) 50 μl of antibody cocktail was added to all of the wells, standards and samples. • 9) Assay plates were sealed tightly and incubated on the plate shaker at 400 rpm for 1 hr at rt. • 10) Wash buffer was prepared following the protocol listed in the kit. • 11) After the hour incubation, assay plates were washed 5 times using 200 μl wash buffer per well per wash. • 12) 100 μl of TMB substrate was added to each well in the dark and incubated on the shaker for 3-4.min, at which point color development was monitored to ensure a robust signal for detection but to avoid oversaturation of signal, for no longer than 10 min. • 13) The absorbance at 607 nm was read on a Perkin Elmer Envision plate reader. • 14) Data was processed using Microsoft Excel and GraphPad Prism.

| IC50 (72 hr) [nM] | IC50 (Homo sapiens, THP-1, 72 h) [nM] | SMILES |
| --- | --- | --- |
| < 5 | – | Cc1nc2cc(-c3ccc(S(=O)(=O)NCc4ccncc4)cc3)ccc2s1 [49 (a), 4-(2-methyl-benzo[d]thiazol-5-yl)-N-(pyridin-4-ylmethyl)-benzenesulfonamide] |
| 100 to 500 | – | Cc1nc2cc(-c3ccc(S(=O)(=O)NCc4ccncc4)cc3)ccc2s1 [49 (b), 4-(2-methyl-benzo[d]thiazol-5-yl)-N-(pyridin-4-ylmethyl)-benzenesulfonamide] |
| – | 5 to 100 | O=S(=O)(NCc1ccncc1)c1ccc(C2=CCCC2)cc1 [Example 1, 4-(Cyclopent-1-en-1-yl)-N-(pyridin-4-ylmethyl)benzenesulfonamide] |
| – | < 5 | O=S(=O)(NCc1ccncc1)c1ccc(C2CCCC2)cc1 [Example 2, 4-cyclopentyl-N-(pyridin-4-ylmethyl)benzenesulfonamide] |
| – | 100 to 500 | CN1CCN(c2ccc(S(=O)(=O)NCc3ccncc3)cc2)CC1 [Example 3, 4-(4-methylpiperazin-1-yl)-N-(pyridin-4-ylmethyl)benzenesulfonamide] |
| – | 100 to 500 | O=S(=O)(NCc1ccncc1)c1ccc(-c2cccnc2)cc1 [Example 4, 4-(pyridin-3-yl)-N-(pyridin-4-ylmethyl)benzenesulfonamide] |
| – | 100 to 500 | O=S(=O)(NCc1ccncc1)c1ccc(-c2cccc(Cl)n2)cc1 [Example 5, 4-(6-chloropyridin-2-yl)-N-(pyridin-4-ylmethyl)benzenesulfonamide] |
| – | < 5 | O=S(=O)(Nc1cccc2cnccc12)c1ccc(C2CCCCC2)cc1 [Example 6, 4-Cyclohexyl-N-(isoquinolin-5-yl)benzenesulfonamide] |
| – | < 5 | O=S(=O)(Nc1cccc2cnccc12)c1ccc(C2CCOCC2)cc1 [Example 7, N-(Isoquinolin-5-yl)-4-(tetrahydro-2H-pyran-4-yl)enzenesulfonamide] |
| – | < 5 | O=S(=O)(NCc1ccnc(F)c1)c1ccc(C2CCCCC2)cc1 [Example 8, 4-cyclohexyl-N-((2-fluoropyridin-4-yl)methyl)benzenesulfonamide] |
| – | < 5 | Nc1cc(CNS(=O)(=O)c2ccc(C3CCCCC3)cc2)ccn1 [Example 9, N-((2-aminopyridin-4-yl)methyl)-4-cyclohexylbenzenesulfonamide] |
| – | 5 to 100 | CC(=O)Nc1cc(CNS(=O)(=O)c2ccc(C3CCCCC3)cc2)ccn1 [Example 10, N-(4-(((4-cyclohexylphenyl)sulfonamido)methyl)pyridin-2-yl)acetamide] |
| – | < 5 | O=S(=O)(NCc1ccncc1)c1ccc(OCC2CCCO2)cc1 (centres unmarked) [Example 11, N-(pyridin-4-ylmethyl)-4-((tetrahydrofuran-2-yl)methoxy)benzenesulfonamide] |
| – | 5 to 100 | O=S(=O)(NCc1ccncc1)c1ccc(C2=CCOCC2)cc1 [Example 12, 4-(3,6-dihydro-2H-pyran-4-yl)-N-(pyridin-4-ylmethyl)-benzenesulfonamide] |
| – | < 5 | O=S(=O)(NCc1ccncc1)c1ccc(C2=CCC(F)(F)CC2)cc1 [Example 14, 4′,4′-difluoro-N-(pyridin-4-ylmethyl)-2′,3′,4′,5′-tetrahydro-[1,1′-biphenyl]-4-sulfonamide] |
| – | < 5 | O=S(=O)(NCc1ccncc1)c1ccc(C2CCC(F)(F)CC2)cc1 [Example 15, 4-(4,4-difluorocyclohexyl)-N-(pyridin-4-ylmethyl)-benzenesulfonamide] |
| – | < 5 | O=S(=O)(NCc1ccncc1)c1ccc(C2CCOCC2)cc1 [Example 16, N-(pyridin-4-ylmethyl)-4-(tetrahydro-2H-pyran-4-yl)-benzenesulfonamide] |
| – | < 5 | O=S(=O)(NCc1ccncc1)c1ccc(C2CCCOC2)cc1 (centres unmarked) [Example 17, N-(pyridin-4-ylmethyl)-4-(tetrahydro-2H-pyran-3-yl)-benzenesulfonamide] |
| – | > 500 | O=S1(=O)CCC(c2ccc(S(=O)(=O)NCc3ccncc3)cc2)CC1 [Example 18, 4-(1,1-dioxotetrahydro-2H-thiopyran-4-yl)-N-(pyridin-4-ylmethyl)-benzenesulfonamide] |
| – | 5 to 100 | O=S(=O)(NCc1ccncc1)c1ccc(C2CCOC2)cc1 (centres unmarked) [Example 19, N-(pyridin-4-ylmethyl)-4-(tetrahydrofuran-3-yl)-benzenesulfonamide] |

| IC50 (72 hr) [nM] | IC50 (Homo sapiens, THP-1, 72 h) [nM] | SMILES |
| --- | --- | --- |
| – | < 5 | CC1(C)CCC(c2ccc(S(=O)(=O)NCc3ccncc3)cc2)CC1 [Example 20, 4-(4,4-dimethyl-cyclohexyl)-N-(pyridin-4-ylmethyl) benzenesulfonamide] |
| – | > 500 | CC(=O)N1CCC(c2ccc(S(=O)(=O)NCc3ccncc3)cc2)C1 (centres unmarked) [Example 21, 4-(1-acetylpyrrolidin-3-yl)-N-(pyridin-4-ylmethyl)-benzenesulfonamide] |
| – | 5 to 100 | O=S(=O)(NCc1ccncc1)c1ccc(N2CCCCC2)cc1 [Example 22, 4-(piperidin-1-yl)-N-(pyridin-4-ylmethyl)-benzenesulfonamide] |
| – | 5 to 100 | O=S(=O)(NCc1ccncc1)c1ccc(N2CCC(F)(F)CC2)cc1 [Example 23, 4-(4,4-difluoropiperidin-1-yl)-N-(pyridin-4-ylmethyl)-benzenesulfonamide] |
| – | 100 to 500 | O=S(=O)(NCc1ccncc1)c1ccc(N2CCOCC2)cc1 [Example 24, 4-morpholino-N-(pyridin-4-ylmethyl)benzenesulfonamide] |
| – | 5 to 100 | O=S(=O)(NCc1ccncc1)c1ccc(N2CCCC2)cc1 [Example 25, N-(pyridin-4-ylmethyl)-4-(pyrrolidin-1-yl)benzenesulfonamide] |
| – | 5 to 100 | CC1(C)CCN(c2ccc(S(=O)(=O)NCc3ccncc3)cc2)C1 [Example 26, 4-(3,3-dimethylpyrrolidin-1-yl)-N-(pyridin-4-yl-methyl)benzenesulfonamide] |
| – | 5 to 100 | O=S(=O)(NCc1ccncc1)c1ccc(N2CCCC(F)(F)C2)cc1 [Example 27, 4-(3,3-difluoropiperidin-1-yl)-N-(pyridin-4-ylmethyl)-benzenesulfonamide] |
| – | 5 to 100 | CC1CCN(c2ccc(S(=O)(=O)NCc3ccncc3)cc2)C1 (centres unmarked) [Example 28, 4-(3-methylpyrrolidin-1-yl)-N-(pyridin-4-ylmethyl)-benzenesulfonamide] |
| – | 5 to 100 | O=S(=O)(NCc1ccncc1)c1ccc(N2CCC(F)(F)C2)cc1 [Example 29, 4-(3,3-difluoropyrrolidin-1-yl)-N-(pyridin-4-ylmethyl)-benzenesulfonamide] |
| – | 5 to 100 | O=S(=O)(NCc1ccncc1)c1ccc(N2CCCC(F)C2)cc1 (centres unmarked) [Example 30, 4-(3-fluoropiperidin-1-yl)-N-(pyridin-4-ylmethyl)-benzenesulfonamide] |
| < 5 | – | O=S(=O)(NCc1ccncc1)c1ccc(N2CCCC(F)(F)C2)cc1 [Example 31, 4-(3,3-difluoropiperidin-1-yl)-N-(pyridin-4-ylmethyl)-benzenesulfonamide] |
| – | 5 to 100 | CC1(C)CN(c2ccc(S(=O)(=O)NCc3ccncc3)cc2)C1 [Example 32, 4-(3,3-dimethylazetidin-1-yl)-N-[(pyridin-4-yl)methyl]benzene-1-sulfonamide] |
| – | 5 to 100 | O=S(=O)(NCc1ccncc1)c1ccc(N2CC3(CCC3)C2)cc1 [Example 33, N-(pyridin-4-ylmethyl)-4-(2-azaspiro[3.3]heptan-2-yl)benzenesulfonamide] |
| – | 5 to 100 | O=S(=O)(NCc1ccncc1)c1ccc(N2CC3(C2)CC(F)(F)C3)cc1 [Example 34, 4-(6,6-difluoro-2-azaspiro[3.3]heptan-2-yl)-N-(pyridin-4-ylmethyl)-benzenesulfonamide] |
| – | < 5 | O=S(=O)(NCc1ccncc1)c1ccc(N2CCC3(CC2)CC3)cc1 [Example 35, N-(pyridin-4-ylmethyl)-4-(6-azaspiro[2.5]octan-6-yl)-benzenesulfonamide] |
| – | < 5 | CC1(C)CCN(c2ccc(S(=O)(=O)NCc3ccncc3)cc2)CC1 [Example 36, 4-(4,4-dimethylpiperidin-1-yl)-N-(pyridin-4-ylmethyl)-benzenesulfonamide] |
| – | < 5 | O=S(=O)(NCc1ccncc1)c1ccc(-c2ccccc2)cc1 [Example 37, N-(pyridin-4-ylmethyl)-[1,1′-biphenyl]-4-sulfonamide] |
| – | 5 to 100 | O=S(=O)(NCc1ccncc1)c1ccc(-c2ccncc2)cc1 [Example 38, 4-(pyridin-4-yl)-N-(pyridin-4-ylmethyl)benzenesulfonamide] |
| – | < 5 | Cc1cnccc1-c1ccc(S(=O)(=O)NCc2ccncc2)cc1 [Example 39, 4-(3-methylpyridin-4-yl)-N-(pyridin-4-ylmethyl)-benzenesulfonamide] |

| SMILES | IC50 (72 hr) [nM] | IC50 (Homo sapiens, THP-1, 72 h) [nM] |
| --- | --- | --- |
| CN1CC=C(c2ccc(S(=O)(=O)NCc3ccncc3)cc2)CC1 [Example 13, 4-(1-methyl-1,2,3,6-tetrahydropyridin-4-yl)-N-(pyridin-4-ylmethyl)-benzenesulfonamide] | – | 100 to 500 |
